Where a name gives a salt, the structure may show the parent alone. Read-outs that look alike come from different tables or passages of the source.
What was measured:
[1] = molecular target: PDK1 (Homo sapiens (Human), UniProt O15530); assay: PDK1 kinase assay (coupled PDK1/AKT/FAM-crosstide assay, IMAP fluorescence polarization); type: biochemical
Summary of the method: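 GST-tagged human PDK1 (aa 51-359, 0.75 nM) from insect cells activated unphosphorylated GST-AKT2 (aa 140-467–PIFtide fusion, 10 nM), which phosphorylated 100 nM FAM-crosstide; 40 μM ATP, pH 7.2 Tris/MgCl2, 30 min at 25° C. IMAP fluorescence polarization read-out; ΔmP versus compound concentration fitted with a 4-parameter curve.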

[2] = test system: phospho-akt (Thr308) in PC-3 cells; assay: Inhibition of phospho-akt (Thr308) in PC-3 cells, MSD phospho-akt 308 ELISA kit; type: cell-based; details: Homo sapiens, 2 hours, no serum, read-out: EC50
Summary of the method: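 Phospho-Akt (Thr308) levels were measured by MSD ELISA after PC-3 cells received compound for 2 hours in serum-free medium. Controls: DMSO (high), 5 μM wortmannin (low).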

[3] = inhibition of P308 Akt in PC-3 cells using MSD
[4] = inhibition of phospo-PDK1 in vitro
[5] = inhibition of P308 Akt in PC-3 cells, MSD

PDK1, sequence (O15530 51-359): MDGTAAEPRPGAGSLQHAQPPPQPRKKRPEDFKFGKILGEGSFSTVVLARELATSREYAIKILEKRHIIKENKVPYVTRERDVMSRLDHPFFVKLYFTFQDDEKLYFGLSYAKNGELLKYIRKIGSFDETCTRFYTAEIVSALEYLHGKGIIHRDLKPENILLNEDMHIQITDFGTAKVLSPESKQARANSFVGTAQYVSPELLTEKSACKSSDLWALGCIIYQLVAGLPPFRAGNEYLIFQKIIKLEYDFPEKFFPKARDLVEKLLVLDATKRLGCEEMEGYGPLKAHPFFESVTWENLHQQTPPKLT

Row | Structure (SMILES) | IC50 ([1]; inhibition of PDK1 in vitro) [nM] | EC50 [2, 3] [nM] | IC50 [1, 4] [nM] | EC50 [2, 5] [nM] | other results
1 | C[C@H](NC(=O)c1cc(C#N)cnc1NCc1ccc(-c2cnc(N)c(C(=O)NCCN3CCN(C)CC3)n2)cc1)c1ccc(F)cc1 [Example 213, (S)-3-amino-6-(4-((5-cyano-3-(1-(4-fluorophenyl)ethylcarbamoyl)pyridin-2-ylamino)methyl)phenyl)-N-(2-(4-methylpiperazin-1-yl)ethyl)pyrazine-2-carboxamide] | < 100 | < 1000 |  |  | 
2 | Cc1ccc(CNC(=O)c2cccnc2NCc2cc(OC(C)C)cc(-c3c[nH]c4ncc(C(=O)NC5CC5)cc34)c2)o1 [Example 4.1.14, N-cyclopropyl-3-[3-{[(3-{[(5-methylfuran-2-yl)methyl]carbamoyl}pyridin-2-yl)amino]methyl}-5-(propan-2-yloxy)phenyl]-1H-pyrrolo[2,3-b] pyridine-5-carboxamide] |  |  | < 100 | 1000 to 10000 | 
3 | CCOc1cnc(NCc2ccc(-c3ccc4ncnc(N)c4c3)s2)c(C(=O)NCc2ccc(F)c(F)c2)c1 [Example 8.1.3, 2-({[5-(4-aminoquinazolin-6-yl)thiophen-2-yl]methyl}amino)-N-(3,4-difluorobenzyl)-5-ethoxypyridine-3-carboxamide] |  |  | > 5000 | > 10000 | 
4 | N#Cc1cnc(NCc2ccc(-c3cnc(N)cn3)cc2)c(C(=O)Nc2ccc(F)cc2)n1 [Example 34, 3-(4-(5-aminopyrazin-2-yl)benzylamino)-6-cyano-N-(4-fluorophenyl) pyrazine-2-carboxamide] |  |  | < 100 | < 1000 | 
5 | Nc1ncnc2ccc(-c3ccc(CNc4ncc(S(=O)(=O)N5CCOCC5)cc4C(=O)NCc4ccc(F)c(F)c4)s3)cc12 [Example 8.7.12, 2-(((5-(4-aminoquinazolin-6-yl)thiophen-2-yl)methyl)amino)-N-(3,4-difluorobenzyl)-5-(morpholinosulfonyl) nicotinamide] |  |  | 100 to 1000 | < 1000 | 
6 | C[C@H](NC(=O)c1cc(C#N)cnc1NCc1ccc(-c2cnc3[nH]nc(N)c3c2)nc1)c1ccc(F)cc1 [Example 66, 2-{[6-(3-Amino-1H-pyrazolo[3,4-b]pyridin-5-yl)-pyridin-3-ylmethyl]-amino}-5-cyano-N-[(S)-1-(4-fluoro-phenyl)-ethyl]-nicotinamide] | < 100 | < 1000 |  |  | 
7 | C[C@H](NC(=O)c1cc(C#N)cnc1NCc1ccc(-c2nn(C)c3ncnc(N)c23)cc1)c1ccc(F)cc1 [Example 98, (S)-2-(4-(4-amino-1-methyl-1H-pyrazolo[3,4-d]pyrimidin-3-yl)benzylamino)-5-cyano-N-(1-(4-fluorophenyl)ethyl)nicotinamide] | < 100 | 1000 to 10000 |  |  | 
8 | O=C(NCc1ccc(F)c(F)c1)c1cc(C(F)(F)F)cnc1N[C@@H](COc1ccc2[nH]c(=O)[nH]c2c1)c1ccccc1 [Example 16.4, (R)-N-(3,4-difluorobenzyl)-2-(2-(2-oxo-2,3-dihydro-1H-benzo[d]imidazol-5-yloxy)-1-phenylethylamino)-5-(trifluoromethyl)nicotinamide] |  |  | 1000 to 5000 |  | EC50 ([2]; PC-3, 2 h, inhibition of P308 Akt in PC-3 cells, MSD): 1000 to 10000 nM
9 | CCOc1ccnc(NCc2ccc(-c3ccc4ncnc(N)c4c3)s2)c1C(=O)N[C@@H](C)c1ccc(F)cc1 [Ex. 7.7, (S)-2-(((5-(4-aminoquinazolin-6-yl)thiophen-2-yl)methyl)amino)-N-(1-(4-fluoro-phenyl)ethyl)-4-ethoxynicotinamide] |  |  | 100 to 1000 | > 10000 | 
10 | CC(C)Oc1cc(CNc2ncccc2C(=O)NC2CC2)cc(-c2c[nH]c3ncc(C(=O)NC4CC4)cc23)c1 [Example 4.1.7, N-cyclopropyl-3-[3-({[3-(cyclopropylcarbamoyl)pyridin-2-yl]amino}methyl)-5-(propan-2-yloxy)phenyl]-1H-pyrrolo[2,3-b] pyridine-5-carboxamide] |  |  | 1000 to 5000 | 1000 to 10000 | 
11 | N#Cc1cnc(NCc2ccc(-c3ccc4ncnc(N)c4c3)s2)c(C(=O)NCc2ccc(F)c(F)c2)n1 [Example 3.80, 3-(((5-(4-aminoquinazolin-6-yl)thiophen-2-yl)methyl)amino)-6-cyano-N-(3,4-difluorobenzyl)pyrazine-2-carboxamide (TFA salt)] |  |  | 100 to 1000 | < 1000 | 
12 | O=C(NCc1ccc(F)c(F)c1)c1cccnc1NCc1csc(-c2c[nH]c3ncncc23)n1 [Ex. 6.13, N-(3,4-difluorobenzyl)-2-({[2-(7H-pyrrolo[2,3-d]pyrimidin-5-yl)-1,3-thiazol-4-yl]-methyl}amino) pyridine-3-carboxamide] |  |  | 100 to 1000 | > 10000 | 
13 | C[C@H](NC(=O)c1cc(C#N)cnc1N[C@@H](COc1ccc2[nH]c(=O)[nH]c2c1)c1ccccc1)c1ccc(F)cc1 [Example 16.10] |  |  | 100 to 1000 | < 1000 | 
14 | C=C1c2ccnc(NCc3ccc(-c4ccc5ncnc(N)c5c4)s3)c2C(=O)N1Cc1ccc(F)c(F)c1 [Ex. 7.20] |  |  | 100 to 1000 | 1000 to 10000 | 

Second part, led by results:

Row | IC50 ([1]; inhibition of PDK1 in vitro) [nM] | EC50 [2, 3] [nM] | IC50 [1, 4] [nM] | EC50 [2, 5] [nM] | Structure (SMILES) | other results
15 | 100 to 1000 | > 10000 |  |  | N#Cc1cnc2c(c1)c(NCc1ccc(F)c(F)c1)nn2Cc1ccc(-c2cnc(N)cn2)cc1 [Example 259, 1-(4-(5-aminopyrazin-2-yl)benzyl)-3-(3,4-difluorobenzylamino)-1H-pyrazolo[3,4-b]pyridine-5-carbonitrile] | 
16 | > 5000 | > 10000 |  |  | Nc1n[nH]c2ncc(-c3ccc(CNc4ncc(C(F)(F)F)cc4-c4nc5cc(F)ccc5o4)cc3)cc12 [Example 348, 5-(4-((3-(5-fluorobenzo[d]oxazol-2-yl)-5-(trifluoro-methyl)pyridin-2-ylamino)methyl)phenyl)-1H-pyrazolo [3,4-b]pyridin-3-amine] | 
17 | < 100 | < 1000 |  |  | CNc1ncc2cc(OCCNc3ncc(C#N)cc3C(=O)N[C@@H](C)c3ccc(F)cc3)ccc2n1 [Example 250, (S)-5-cyano-N-(1-(4-fluorophenyl)ethyl)-2-(2-(2-(methylamino)quinazolin-6-yloxy)ethylamino)nicotinamide] | 
18 | < 100 | < 1000 |  |  | C[C@H](NC(=O)c1nc(C#N)cnc1N[C@H](CO)c1ccc(-c2cnc3[nH]nc(N)c3c2)cc1)c1ccc(F)c(F)c1 [Example 353, 3-((S)-1-(4-(3-amino-1H-pyrazolo[3,4-b]pyridin-5-yl)phenyl)-2-hydroxy-ethylamino)-6-cyano-N-((S)-1-(3,4-difluorophenyl)ethyl)pyrazine-2-carboxamide] | 
19 | < 100 | < 1000 |  |  | CNc1ncc2cc(C#CCNc3ncc(C#N)cc3C(=O)N[C@@H](C)c3ccc(F)cc3)ccc2n1 [Example 255, (S)-5-cyano-N-(1-(4-fluorophenyl)ethyl)-2-(3-(2-(methylamino)quinazolin-6-yl)prop-2-ynylamino)nicotinamide] | 
20 | 1000 to 5000 |  |  |  | Nc1n[nH]c2ncc(-c3ccc(CNc4ncc(C(F)(F)F)cc4C(=O)N4CC(F)(F)C4)cc3)cc12 [Example 293] | EC50 ([2]; PC-3, 2 h, inhibition of P308 Akt in PC-3 cells using MSD): > 10000 nM
21 | 1000 to 5000 | 1000 to 10000 |  |  | Cn1cnc(CNC(=O)c2cc(C(F)(F)F)cnc2NCc2ccc(-c3cnc4[nH]nc(N)c4c3)cc2)c1 [Example 270, 2-(4-(3-amino-1H-pyrazolo [3,4-b]pyridin-5-yl)benzylamino)-N-((1-methyl-1H-imidazol-4-yl)methyl)-5-(trifluoromethyl) nicotinamide] | 
22 | < 100 | < 1000 |  |  | Nc1ncc(-c2ccc(CNc3ncc(C(F)(F)F)cc3C(=O)Nc3ccc(F)cc3)cc2)nc1NCC(O)CO (stereo not drawn) [Example 245, 2-{4-[5-Amino-6-(2,3-dihydroxy-propylamino)-pyrazin-2-yl]-benzylamino}-N-(4-fluoro-phenyl)-5-trifluoromethyl-nicotinamide] | 
23 | < 100 | 1000 to 10000 |  |  | C[C@H](NC(=O)c1nc(C#N)cnc1NCc1ccc(-c2ccc(N)nn2)cc1)c1ccc(F)c(F)c1 [Example 409, (S)-3-(4-(6-aminopyridazin-3-yl)benzylamino)-6-cyano-N-(1-(3,4-difluorophenyl)ethyl)pyrazine-2-carboxamide] | 
24 | < 100 | 1000 to 10000 |  |  | O=C(NCc1ccc(F)cc1)c1cccnc1NCc1ccc(-c2cnc3[nH]ncc3c2)cc1 [Example 393, 2-(4-(1H-pyrazolo[3,4-b]pyridin-5-yl)benzylamino)-N-(4-fluorobenzyl) nicotinamide] | 
25 | > 5000 | > 10000 |  |  | CC(Nc1ncc(C#N)nc1C(=O)N[C@@H](C)c1ccc(F)c(F)c1)c1ccc(-c2cnc3[nH]nc(N)c3c2)cc1 (stereo in doubt) [Example 350, 3-((R)-1-(4-(3-amino-1H-pyrazolo[3,4-b]pyridin-5-yl)phenyl)ethylamino)-6-cyano-N-((S)-1-(3,4-difluorophenyl)ethyl) pyrazine-2-carboxamide] | 
26 | < 100 | 1000 to 10000 |  |  | Nc1ncnc2c1c(-c1ccc(CNc3ncc(C(F)(F)F)cc3C(=O)Nc3ccc(F)cc3)cc1)cn2CCCCO [Example 404, 2-(4-(4-amino-7-(4-hydroxybutyl)-7H-pyrrolo [2,3-d]pyrimidin-5-yl)benzylamino)-N-(4-fluorophenyl)-5-(trifluoromethyl)nicotinamide] | 
27 | < 100 | < 1000 |  |  | C[C@H](NC(=O)c1nc(C#N)cnc1N[C@H](C)c1ccc(-c2cn(C)c3ncnc(N)c23)cc1)c1ccc(F)c(F)c1 [Example 399, 3-((R)-1-(4-(4-amino-7-methyl-7H-pyrrolo[2,3-d]pyrimidin-5-yl)phenyl)ethylamino)-6-cyano-N-((S)-1-(3,4-difluorophenyl)ethyl)pyrazine-2-carboxamide] | 

From patent US10030016B2 (Sunesis Pharmaceuticals, Inc., priority 2009, dated 2018)
